{"source": "patent US8686046B2", "about": "“Compositions and methods for inhibiting sphingosine kinase” (University of Virginia Patent Foundation, priority 2008, dated 2014)", "key": {"[1]": {"system": "SphK", "experiment": "SphK inhibition"}, "[2]": {"system": "S1P production", "experiment": "S1P production by smooth muscle cells (LC/MS)", "assay_type": "cell-based, rat", "description": "(§1) Smooth muscle cells (SMCs) are treated with platelet-derived growth factor BB (PDGF-BB), a potent modulator of SMC.\n(§2) FIG. 19 illustrates the PDGF-BB increase Sphk1 mRNA, Spkh1 (not Sphk2) activity and S1P production. […] Cultured rat aortic smooth muscle cells were stimulated with PDGF-BB. 19A.) Real-time PCR analysis of Sphk1 mRNA at various time points compared to vehicle control. 19B.) Analysis of Sphk1 and Sphk2 activity (P^32ATP kinase assay). 19C.) S1P concentration in the media 12 hours after stimulating SMCs with PDGF-BB."}, "[3]": {"system": "SMCs", "experiment": "Images of SMCs treated with and without compound", "assay_type": "cell-based", "details": "FIG. 21C"}, "[4]": {"target": "T1, Sphk1 (Rattus norvegicus, UniProt Q91V26)", "T1 construct": "endogenous in cells; host or cells: cultured rat aortic smooth muscle cells", "T1 sequence (Q91V26 whole entry)": "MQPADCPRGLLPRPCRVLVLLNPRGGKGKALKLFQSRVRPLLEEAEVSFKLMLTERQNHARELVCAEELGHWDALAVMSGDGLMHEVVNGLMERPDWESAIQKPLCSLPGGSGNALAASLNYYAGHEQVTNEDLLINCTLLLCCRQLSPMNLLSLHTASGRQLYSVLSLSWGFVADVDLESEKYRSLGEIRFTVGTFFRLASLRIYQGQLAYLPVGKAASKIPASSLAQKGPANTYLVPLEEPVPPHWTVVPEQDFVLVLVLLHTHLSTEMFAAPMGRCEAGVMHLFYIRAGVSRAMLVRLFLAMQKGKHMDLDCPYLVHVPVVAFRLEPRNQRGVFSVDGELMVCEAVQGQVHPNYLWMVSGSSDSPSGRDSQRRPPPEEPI", "experiment": "Sphk1/Sphk2 activity in PDGF-BB-stimulated smooth muscle cells (P32 ATP kinase assay)", "assay_type": "cell-based", "details": "cultured rat aortic smooth muscle cells stimulated with PDGF-BB; FIG. 19B", "description": "as §1, §2"}, "[5]": {"system": "SMCs", "experiment": "Cell cytotoxicity by Promega caspase activity assay", "assay_type": "cell-based", "details": "after 24 hr treatment, FIG. 21B"}, "[6]": {"system": "SMCs", "experiment": "PDGF-BB-induced SMC proliferation by BrdU incorporation", "assay_type": "cell-based", "details": "FIG. 21A", "description": "Cell proliferation was measured by BrdU incorporation."}}, "data": [{"smiles": "CCCCCCCCc1ccc(C(=O)N[C@@H](C)C(=N)N)cc1", "note": "[VPC94075]", "values": [{"measurement": "SphK inhibition (description)", "setting": "[1]", "value": "non-selective SphK inhibitor"}, {"measurement": "PDGF-BB-induced S1P production", "setting": "[2]; 10 uM, S1P in media 12 hours after stimulating SMCs with PDGF-BB, FIG. 19C", "value": "blocks PDGF-BB-induced S1P production"}, {"measurement": "endogenous and PDGF-BB-induced S1P production", "setting": "[2]; concentration not given", "value": "suppresses both endogenous and PDGF-BB-induced S1P production"}, {"measurement": "SMC proliferation as indicated by differences in confluence", "setting": "[3]", "value": "prevention of SMC proliferation"}, {"measurement": "cell morphology", "setting": "[3]", "value": "healthy cell morphology"}, {"measurement": "PDGF-BB-induced Sphk1 activity", "setting": "[4]", "value": "prevents PDFD-BB-induced Sphk1 activity"}, {"measurement": "cell death", "setting": "[5]", "value": "does not induce cell death"}]}, {"smiles": "CCCCCCCCc1ccc(C(=O)NC(C)C(N)=O)cc1", "note": "(stereo not drawn) [VPC94193]", "values": [{"measurement": "SphK inhibition (description)", "setting": "[1]", "value": "inactive form"}, {"measurement": "PDGF-BB-induced SMC proliferation", "setting": "[6]", "value": "prevented PDGF-BB-induced SMC proliferation"}]}]}
